Like-named read-outs stand apart in the source and are kept apart here.
Assays:
Assay in all cases: tissue or organelle
Settings in all cases: read-out: Intrinsec activity %
[1] = biological target: T1, NMDA receptor histamine site (NMDA(HA)R), native NMDAR of rat hippocampal synaptosomes (Rattus norvegicus, UniProt P35439+Q00960)
[2] = biological target: T1, NMDA receptor histamine site (NMDA(HA)R), native NMDAR of rat hippocampal synaptosomes; remark: listed apart in the source
[3] = biological target: T1, NMDA receptor histamine site (NMDA(HA)R), native NMDAR of rat hippocampal synaptosomes; remark: listed apart in the source
[4] = biological target: T1, NMDA receptor histamine site (NMDA(HA)R), native NMDAR of rat hippocampal synaptosomes; remark: listed apart in the source
[5] = biological target: T1, NMDA receptor histamine site (NMDA(HA)R), native NMDAR of rat hippocampal synaptosomes; remark: listed apart in the source
[6] = biological target: T1, NMDA receptor histamine site (NMDA(HA)R), native NMDAR of rat hippocampal synaptosomes; remark: listed apart in the source
[7] = biological target: T1, NMDA receptor histamine site (NMDA(HA)R), native NMDAR of rat hippocampal synaptosomes; remark: listed apart in the source
[8] = biological target: T1, NMDA receptor histamine site (NMDA(HA)R), native NMDAR of rat hippocampal synaptosomes; remark: listed apart in the source

T1 sequence (Q00960 27-1482, other chains not shown): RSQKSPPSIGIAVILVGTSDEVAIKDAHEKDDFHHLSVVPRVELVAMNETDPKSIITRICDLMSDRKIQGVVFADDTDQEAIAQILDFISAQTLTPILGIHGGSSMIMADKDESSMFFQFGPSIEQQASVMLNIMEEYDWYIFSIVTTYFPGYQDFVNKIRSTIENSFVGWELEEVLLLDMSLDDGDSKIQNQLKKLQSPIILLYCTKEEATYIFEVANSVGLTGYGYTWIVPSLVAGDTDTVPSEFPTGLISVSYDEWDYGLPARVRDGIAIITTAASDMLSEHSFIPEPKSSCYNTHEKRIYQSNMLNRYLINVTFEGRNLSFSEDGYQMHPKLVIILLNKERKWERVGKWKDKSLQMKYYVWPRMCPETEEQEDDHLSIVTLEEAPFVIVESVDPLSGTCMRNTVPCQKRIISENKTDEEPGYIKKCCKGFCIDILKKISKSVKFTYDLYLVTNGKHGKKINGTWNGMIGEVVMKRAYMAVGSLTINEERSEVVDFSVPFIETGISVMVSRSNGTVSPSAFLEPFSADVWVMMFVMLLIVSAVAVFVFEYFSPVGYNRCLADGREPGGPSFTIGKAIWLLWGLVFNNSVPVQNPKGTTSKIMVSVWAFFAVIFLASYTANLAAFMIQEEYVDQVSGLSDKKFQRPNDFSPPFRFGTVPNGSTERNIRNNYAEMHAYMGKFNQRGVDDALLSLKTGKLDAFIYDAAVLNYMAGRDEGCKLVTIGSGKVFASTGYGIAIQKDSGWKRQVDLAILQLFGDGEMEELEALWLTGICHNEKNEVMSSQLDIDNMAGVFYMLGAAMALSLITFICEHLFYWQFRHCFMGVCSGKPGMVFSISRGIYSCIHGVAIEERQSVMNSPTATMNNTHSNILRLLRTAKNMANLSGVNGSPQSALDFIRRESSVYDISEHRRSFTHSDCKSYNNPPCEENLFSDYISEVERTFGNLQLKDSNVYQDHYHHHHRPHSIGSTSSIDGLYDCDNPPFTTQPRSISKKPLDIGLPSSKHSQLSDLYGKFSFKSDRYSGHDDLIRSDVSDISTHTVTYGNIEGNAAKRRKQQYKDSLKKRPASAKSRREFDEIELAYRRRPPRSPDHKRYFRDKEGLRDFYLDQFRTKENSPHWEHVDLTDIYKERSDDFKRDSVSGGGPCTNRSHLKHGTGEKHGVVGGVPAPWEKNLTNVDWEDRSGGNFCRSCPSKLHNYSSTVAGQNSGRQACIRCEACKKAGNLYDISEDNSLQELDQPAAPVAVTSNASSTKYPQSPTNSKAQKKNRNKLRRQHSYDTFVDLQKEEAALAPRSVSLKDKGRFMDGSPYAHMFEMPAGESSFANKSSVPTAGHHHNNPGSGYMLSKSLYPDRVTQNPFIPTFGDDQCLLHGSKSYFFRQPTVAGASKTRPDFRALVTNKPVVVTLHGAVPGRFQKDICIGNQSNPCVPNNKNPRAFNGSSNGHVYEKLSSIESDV

For Nc1nc2ccc(CCNCCc3ccccc3)cc2s1 [Fub 281], the Emax [1] was 30%.

Sc1nc2ccc(SCCNCCCCc3ccccc3)cc2s1 [ST 576] showed an Emax [2] of 38%.

In the case of CCNCCc1ccc2nc(N)sc2c1 [Fub 275], the Emax [2] is reported as 15%.

Nc1nc2ccc(CCNCCCCc3ccccc3)cc2s1 [FUBn293] was tested, and the Emax [3] was 39%.

Nc1nc2ccc(CCNCCCc3ccccc3)cc2s1 [Fub 292] gave an Emax [1] of 32%.

In the case of CCCCCCNCCc1ccc2nc(N)sc2c1 [Fub 288], the Emax [2] is reported as 35%.

CCCCCCCCCNCCc1ccc2nc(N)sc2c1 [Fub 305] was tested, and the Emax [2] was 30%.

CC(C)(C)NCCc1ccc2nc(N)sc2c1 [Fub 289] showed an Emax [2] of 23%.

Work on CCN(CC(O)c1ccc(C(F)(F)F)cc1)C1CCc2cc(OC)c(OC)cc2C1 (stereo not shown) [ST 592] yielded an Emax [4] of 30%.

Nc1nc2ccc(CCNCC3CCCCC3)cc2s1 [Fub 266] showed an Emax [1] of 48%.

Compound NCCCCCCc1cnc(N)s1 [Fub 296] has an Emax [5] of 41%.

CCc1nc(N)sc1CCCN [Fub 301] gave an Emax [6] of 61%.

In the case of Nc1nc(C2CCC(N)CC2)c[se]1 (stereo not shown) [Fub 210], the Emax [5] is reported as 33%.

With Nc1nc(C2CCC(N)CC2)cs1 (stereo not shown) [Fub 206] the Emax [5] was 40%.

With Nc1nc(C2CCCC(N)C2)cs1 (stereo not shown) [Fub 235] the Emax [5] was 38%.

CCCNCCc1ccc2nc(N)sc2c1 [Fub 276] gave an Emax [2] of 15%.

NCCc1ccc2nc(N)sc2c1 [Fub 247] was tested, and the Emax [7] was 48%.

Cc1sc(N)nc1/C=C/CN [Fub 242] gave an Emax [5] of 75%.

Work on COc1cc2c(cc1OC)CC(NCC(O)c1ccc(F)cc1)CC2 (stereo not shown) [ST 593] yielded an Emax [4] of 25%.

Work on NCCCCCc1cnc(N)s1 [Fub 295] yielded an Emax [5] of 41%.

CCCCNCCc1ccc2nc(N)sc2c1 [Fub 286] showed an Emax [2] of 31%.

With Cc1nc(N)sc1CCCCCN [Fub 238] the Emax [6] was 50%.

Compound CCc1nc(N)sc1CCN [Fub 240] has an Emax [6] of 82%.

COc1ccc(CCNCCc2ccc3nc(N)sc3c2)cc1 [Fub 298] showed an Emax [1] of 19%.

NCCCCc1cnc(N)s1 [Fub 218] showed an Emax [5] of 81%.

For NCCCCCCc1csc(N)n1 [Fub 239], the Emax [8] was 23%.

For Nc1nc2ccc(CCNCc3ccccc3)cc2s1 [Fub 299], the Emax [1] was 36%.

Cc1ccc(CCNCCc2ccc3nc(N)sc3c2)cc1 [Fub 297] showed an Emax [1] of 32%.

Cc1nc(N)sc1CCCCN [Fub 217] gave an Emax [6] of 52%.

For COc1ccc(C(O)CNC2CCc3cc(OC)c(OC)cc3C2)cc1 (stereo not shown) [ST 578], the Emax [2] was 30%.

CCCCCCCCNCCc1ccc2nc(N)sc2c1 [Fub 304] gave an Emax [2] of 33%.

Work on CC1(C)C(C(=O)c2cn(Cc3ccc(F)cc3)c3ccccc23)C1(C)C [Fub 144] yielded an Emax [5] of 35%.

COc1cc2c(cc1OC)CC(NCC(O)c1ccc(C)cc1)CC2 (stereo not shown) [ST 563] showed an Emax [2] of 50%.

In the case of CCN(CCc1ccccc1)C1CCc2cc(OC)c(OC)cc2C1 (stereo not shown) [ST 577], the Emax [2] is reported as 25%.

NCCCCCc1csc(N)n1 [Fub 216] gave an Emax [8] of 20%.

CCC(C)(C)NCCc1ccc2nc(N)sc2c1 [Fub 290] showed an Emax [2] of 27%.

Work on Clc1nc2ccc(CCNCCCCc3ccccc3)cc2s1 [ST 575] yielded an Emax [2] of 40%.

For NCc1ccc2nc(N)sc2c1 [Fub 223], the Emax [7] was 34%.

CCc1nc(N)sc1CCCCN [Fub 309] gave an Emax [6] of 40%.

In the case of Cc1sc(N)nc1CCCCN [Fub 302], the Emax [8] is reported as 29%.

In the case of NCCc1ccc2nc(N)[se]c2c1 [Fub 300], the Emax [7] is reported as 45%.

CCCC(C)(C)NCCc1ccc2nc(N)sc2c1 [Fub 291] gave an Emax [2] of 32%.

In the case of CCCNC1CCc2ncsc2C1 (stereo not shown) [ST 581], the Emax [4] is reported as 50%.

CCCCCCCNCCc1ccc2nc(N)sc2c1 [Fub 303] was tested, and the Emax [2] was 33%.

With COc1cc2c(cc1OC)CC(NCC(O)c1ccc(C(F)(F)F)cc1)CC2 (stereo not shown) [ST 590] the Emax [4] was 30%.

Work on Nc1nc2ccc(CCNCCCCCc3ccccc3)cc2s1 [Fub 306] yielded an Emax [1] of 33%.

Compound Cc1sc(N)nc1CCCN [Fub 241] has an Emax [8] of 53%.

Work on Nc1nc2ccc(CCNCCCCCCc3ccccc3)cc2s1 [Fub 307] yielded an Emax [1] of 33%.

CCCCCNCCc1ccc2nc(N)sc2c1 [Fub 287] showed an Emax [2] of 30%.

— paper doi:10.1101/2024.03.08.583891v2 (biorxiv, 2024)
